In patent US20140018347A1, “BENZOXAZEPINES AS INHIBITORS OF mTOR AND METHODS OF THEIR USE AND MANUFACTURE” (Exelixis, Inc., priority 2010, published 2014):
pIC50: −log10 of the molar value.

Tests used:
[1] = target: mTORC1 (Homo sapiens, UniProt P42345); experiment: mTOR/GbL/Raptor (mTORC1) ELISA Assay; type: biochemical; details: phosphorylation of 4E-BP1; 0.2 nM mTORC1, 10 μM ATP
Method in brief: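 Kinase reaction: 0.2 nM mTORC1, 10 μM ATP, 50 nM NHis-4E-BP1 in Hepes pH 7.2 with 10 mM MnCl2, 120 min at ambient temperature. Phospho-4E-BP1 was captured on Ni-chelate plates and detected by anti-phospho-4E-BP1 rabbit IgG, HRP secondary and chemiluminescence.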

[2] = target: PI3Kalpha (Homo sapiens, UniProt P42336); experiment: PI3K Biochemical Assays (PI3K-alpha assay); details: ATP consumption, luciferase-luciferin; 1 μM ATP, 10 μM PIP2
Sequence of PI3Kalpha (P42336 whole entry, canonical isoform): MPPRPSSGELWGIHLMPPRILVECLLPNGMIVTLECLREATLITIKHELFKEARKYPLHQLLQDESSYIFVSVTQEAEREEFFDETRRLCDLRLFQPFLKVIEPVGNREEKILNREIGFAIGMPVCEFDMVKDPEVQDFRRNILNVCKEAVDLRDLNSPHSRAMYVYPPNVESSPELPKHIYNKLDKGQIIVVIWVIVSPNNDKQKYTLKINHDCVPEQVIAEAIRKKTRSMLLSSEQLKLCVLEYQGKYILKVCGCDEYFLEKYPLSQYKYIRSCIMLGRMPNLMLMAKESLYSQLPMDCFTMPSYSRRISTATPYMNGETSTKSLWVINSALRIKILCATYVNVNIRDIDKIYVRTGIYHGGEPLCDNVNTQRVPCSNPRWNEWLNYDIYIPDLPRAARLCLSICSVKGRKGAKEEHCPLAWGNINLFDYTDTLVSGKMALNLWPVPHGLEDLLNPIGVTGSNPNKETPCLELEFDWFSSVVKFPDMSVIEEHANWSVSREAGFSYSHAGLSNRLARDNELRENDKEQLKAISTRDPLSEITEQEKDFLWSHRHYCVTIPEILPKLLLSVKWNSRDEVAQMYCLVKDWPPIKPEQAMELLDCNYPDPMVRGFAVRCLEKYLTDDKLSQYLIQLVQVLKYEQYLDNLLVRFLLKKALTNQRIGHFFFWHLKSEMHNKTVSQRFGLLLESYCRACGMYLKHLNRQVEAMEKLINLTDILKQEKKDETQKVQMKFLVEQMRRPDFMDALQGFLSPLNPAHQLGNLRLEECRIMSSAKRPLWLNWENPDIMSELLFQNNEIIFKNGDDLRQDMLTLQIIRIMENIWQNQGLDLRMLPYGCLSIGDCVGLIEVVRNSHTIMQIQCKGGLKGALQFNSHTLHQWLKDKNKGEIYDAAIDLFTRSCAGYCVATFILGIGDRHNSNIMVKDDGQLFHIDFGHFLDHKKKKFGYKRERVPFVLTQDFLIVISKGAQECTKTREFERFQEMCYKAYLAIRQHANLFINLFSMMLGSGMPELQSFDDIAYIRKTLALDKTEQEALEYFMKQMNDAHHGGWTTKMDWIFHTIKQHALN
Sequence of PI3Kalpha (P27986 whole entry partner, canonical isoform): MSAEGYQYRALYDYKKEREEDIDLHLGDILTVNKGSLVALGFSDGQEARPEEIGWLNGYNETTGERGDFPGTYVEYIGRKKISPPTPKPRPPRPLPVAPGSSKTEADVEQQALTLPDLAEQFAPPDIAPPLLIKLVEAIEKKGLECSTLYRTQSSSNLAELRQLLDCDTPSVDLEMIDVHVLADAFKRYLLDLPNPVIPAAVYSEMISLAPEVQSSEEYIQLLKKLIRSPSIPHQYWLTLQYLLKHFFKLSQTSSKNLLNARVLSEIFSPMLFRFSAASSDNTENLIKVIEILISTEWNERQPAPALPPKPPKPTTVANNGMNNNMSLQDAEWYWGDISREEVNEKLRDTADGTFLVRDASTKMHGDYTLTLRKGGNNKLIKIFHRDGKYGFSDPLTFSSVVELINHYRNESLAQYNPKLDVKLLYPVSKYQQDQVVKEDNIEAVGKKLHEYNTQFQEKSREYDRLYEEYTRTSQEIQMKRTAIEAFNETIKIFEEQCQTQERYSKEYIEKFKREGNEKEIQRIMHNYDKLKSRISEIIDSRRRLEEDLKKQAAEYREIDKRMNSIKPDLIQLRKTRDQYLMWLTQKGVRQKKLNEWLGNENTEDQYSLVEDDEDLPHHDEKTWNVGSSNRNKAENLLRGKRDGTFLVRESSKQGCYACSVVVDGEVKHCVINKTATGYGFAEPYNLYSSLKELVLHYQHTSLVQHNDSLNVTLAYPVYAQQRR
Method in brief: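 Recombinant PI3Kα 3 nM, ATP 1 μM and PIP2 10 μM in Tris pH 7.5 with 10 mM MgCl2, ~2 h at ambient temperature. ATP depletion (held to 40-60%) was read by Kinase-Glo luminescence for IC50. Other isoforms: β 10 nM, δ 4 nM; γ 40 nM, 1 h, 5 mM MgCl2.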

Row | SMILES | pIC50 [1] | pIC50 [2]
1 | Cc1nc(CNS(C)(=O)=O)nc(N2CCOc3ccc(-c4cnc5sc(N)nc5c4)cc3C2)c1C(C)C [Compound 21, N-({4-[7-(2-amino[1,3]thiazolo[5,4-b]pyridin-6-yl)-2,3-dihydro-1,4-benzoxazepin-4(5H)-yl]-6-methyl-5-(1-methylethyl)pyrimidin-2-yl}methyl)methanesulfonamide] | ≥ 7.00 | ≥ 7.00
2 | Cc1nc(CN(C)C)nc(N2CCOc3ccc(-c4cnc5sc(N)nc5c4)cc3C2)c1-c1ccccc1 [Compound 37, 6-(4-{2-[(dimethylamino)methyl]-6-methyl-5-phenylpyrimidin-4-yl}-2,3,4,5-tetrahydro-1,4-benzoxazepin-7-yl)[1,3]thiazolo[5,4-b]pyridin-2-amine] | ≥ 7.00 | ≥ 7.00
3 | Nc1nc2cc(-c3ccc4c(c3)CN(c3ccnc([N+](=O)[O-])c3)CCO4)cnc2s1 [Compound 93, 6-[4-(2-nitropyridin-4-yl)-2,3,4,5-tetrahydro-1,4-benzoxazepin-7-yl][1,3]thiazolo[5,4-b]pyridin-2-amine] | 6.30 to 7.00 | 5.60 to 6.30
4 | CC1(C)Cc2nc(N3CCOc4ccc(-c5cnc6sc(N)nc6c5)cc4C3)sc2C(=O)N1 [Compound 85, 2-[7-(2-amino[1,3]thiazolo[5,4-b]pyridin-6-yl)-23-dihydro-1,4-benzoxazepin-4(5H)-yl]-6,6-dimethyl-6,7-dihydro[1,3]thiazolo[5,4-c]pyridin-4(5H)-one] | ≥ 7.00 | 6.30 to 7.00
5 | Cc1nc(N)nc(N2CCOc3ccc(-c4cnc5sc(N)nc5c4)cc3C2)c1-c1ccccc1 [Compound 39, 6-[4-(2-amino-6-methyl-5-phenylpyrimidin-4-yl)-2,3,4,5-tetrahydro-1,4-benzoxazepin-7-yl][1,3]thiazolo[5,4-b]pyridin-2-amine] | ≥ 7.00 | ≥ 7.00
6 | CC1(C)CC(=O)c2sc(N3CCOc4ccc(-c5cnc6sc(N)nc6c5)cc4C3)nc2C1 [Compound 84, 2-[7-(2-amino[1,3]thiazolo[5,4-b]pyridin-6-yl)-2,3-dihydro-1,4-benzoxazepin-4(5H)-yl]-5,5-dimethyl-5,6-dihydro-1,3-benzothiazol-7(4H)-one] | 6.30 to 7.00 | 5.60 to 6.30
7 | C=CCc1c(C)nc(CN(C)C)nc1N1CCOc2ccc(-c3cnc4sc(N)nc4c3)cc2C1 [Compound 70, 6-(4-{2-[(dimethylamino)methyl]-6-methyl-5-prop-2-en-1-ylpyrimidin-4-yl}-2,3,4,5-tetrahydro-1,4-benzoxazepin-7-yl)[1,3]thiazolo[5,4-b]pyridin-2-amine] | ≥ 7.00 | ≥ 7.00
8 | CC(C)(C)c1cnc(N)nc1N1CCOc2ccc(-c3cnc4sc(N)nc4c3)cc2C1 [Compound 47, 6-{4-[2-amino-5-(1,1-dimethylethyl)pyrimidin-4-yl]-2,3,4,5-tetrahydro-1,4-benzoxazepin-7-yl}[1,3]thiazolo[5,4-b]pyridin-2-amine] | 5.60 to 6.30 | 5.60 to 6.30
9 | COc1ccc2c(N3CCOc4ccc(-c5cnc6sc(N)nc6c5)cc4C3)nc(C)nc2c1 [Compound 26, 6-{4-[2-methyl-7-(methyloxy)quinazolin-4-yl]-2,3,4,5-tetrahydro-1,4-benzoxazepin-7-yl}[1,3]thiazolo[5,4-b]pyridin-2-amine] | 6.30 to 7.00 | ≥ 7.00
10 | Cc1nc(CN(C)C)nc(N2CCOc3ccc(-c4cnc5sc(N)nc5c4)cc3C2)c1CC(=O)O [Compound 18, {4-[7-(2-amino[1,3]thiazolo[5,4-b]pyridin-6-yl)-2,3-dihydro-1,4-benzoxazepin-4(5H)-yl]-2-[(dimethylamino)methyl]-6-methylpyrimidin-5-yl}acetic acid] | 5.60 to 6.30 | 6.30 to 7.00
11 | Cc1nc(CN(C)C)nc(N2CCOc3ccc(-c4cnc5sc(N)nc5c4)cc3C2)c1C(C)C [Compound 55, 6-(4-{2-[(dimethylamino)methyl]-6-methyl-5-(1-methylethyl)pyrimidin-4-yl}-2,3,4,5-tetrahydro-1,4-benzoxazepin-7-yl)[1,3]thiazolo[5,4-b]pyridin-2-amine] | ≥ 7.00 | ≥ 7.00

Results, then the compound that gave them:

Row | pIC50 [1] | pIC50 [2] | SMILES
12 | 6.30 to 7.00 | ≥ 7.00 | Cc1c(N)nc(N)nc1N1CCOc2ccc(-c3cnc4sc(N)nc4c3)cc2C1 [Compound 73, 6-[7-(2-amino[1,3]thiazolo[5,4-b]pyridin-6-yl)-2,3-dihydro-1,4-benzoxazepin-4(5H)-yl]-5-methylpyrimidine-2,4-diamine]
13 | ≥ 7.00 | ≥ 7.00 | CC(O)c1c(Cl)nc(N)nc1N1CCOc2ccc(-c3cnc4sc(N)nc4c3)cc2C1 (stereo not drawn) [Compound 53, 1-{2-amino-4-[7-(2-amino[1,3]thiazolo[5,4-b]pyridin-6-yl)-2,3-dihydro-1,4-benzoxazepin-4(5H)-yl]-6-chloropyrimidin-5-yl}ethanol]
14 | 5.60 to 6.30 | 6.30 to 7.00 | Cc1nc(N)nc(N2CCOc3ccc(-c4cnc5sc(N)nc5c4)cc3C2)c1C1CC1 [Compound 41, 6-[4-(2-amino-5-cyclopropyl-6-methylpyrimidin-4-yl)-2,3,4,5-tetrahydro-1,4-benzoxazepin-7-yl][1,3]thiazolo[5,4-b]pyridin-2-amine]
15 | 5.60 to 6.30 | 5.60 to 6.30 | Nc1cc(N2CCOc3ccc(-c4cnc5sc(N)nc5c4)cc3C2)ccn1 [Compound 94, 6-[4-(2-aminopyridin-4-yl)-2,3,4,5-tetrahydro-1,4-benzoxazepin-7-yl][1,3]thiazolo[5,4-b]pyridin-2-amine]
16 | ≥ 7.00 | ≥ 7.00 | C=CCc1c(C)nc(N)nc1N1CCOc2ccc(-c3cnc4sc(N)nc4c3)cc2C1 [Compound 83, 6-[4-(2-amino-6-methyl-5-prop-2-en-1-ylpyrimidin-4-yl)-2,3,4,5-tetrahydro-1,4-benzoxazepin-7-yl][1,3]thiazoloJ-[5,4-b]pyridin-2-amine]
17 | 6.30 to 7.00 | ≥ 7.00 | COc1nc(N)nc(N2CCOc3ccc(-c4cnc5sc(N)nc5c4)cc3C2)c1C [Compound 67]
18 | 6.30 to 7.00 | 6.30 to 7.00 | Nc1nc(Cl)cc(N2CCOc3ccc(-c4cnc5sc(N)nc5c4)cc3C2)n1 [Compound 16, 6-[4-(2-amino-6-chloropyrimidin-4-yl)-2,3,4,5-tetrahydro-1,4-benzoxazepin-7-yl][1,3]thiazolo[5,4-b]pyridin-2-amine]
19 | 6.30 to 7.00 | ≥ 7.00 | Nc1nc(Cl)c(CO)c(N2CCOc3ccc(-c4cnc5sc(N)nc5c4)cc3C2)n1 [Compound 43, {2-amino-4-[7-(2-amino[1,3]thiazolo[5,4-b]pyridin-6-yl)-2,3-dihydro-1,4-benzoxazepin-4(5H)-yl]-6-chloropyrimidin-5-yl}methanol]
20 | 6.30 to 7.00 | ≥ 7.00 | N#Cc1cnc(N)nc1N1CCOc2ccc(-c3cnc4sc(N)nc4c3)cc2C1 [Compound 79, 2-amino-4-[7-(2-amino[1,3]thiazolo[5,4-b]pyridin-6-yl)-2,3-dihydro-1,4-benzoxazepin-4(5H)-yl]pyrimidine-5-carbonitrile]
21 | ≥ 7.00 | ≥ 7.00 | C#Cc1c(C)nc(N)nc1N1CCOc2ccc(-c3cnc4sc(N)nc4c3)cc2C1 [Compound 74, 6-[4-(2-amino-5-ethynyl-6-methylpyrimidin-4-yl)-2,3,4,5-tetrahydro-1,4-benzoxazepin-7-yl][1,3]thiazolo[5,4-b]pyridin-2-amine]
